The values that follow come from patent publication US11807693B2 (priority 2014, dated 2023).

One data set deals with T1, rat APJ receptor (Rattus norvegicus, UniProt Q9JHG3).
T1 construct: expressed in transfected cells
T1 sequence (Q9JHG3 1-377): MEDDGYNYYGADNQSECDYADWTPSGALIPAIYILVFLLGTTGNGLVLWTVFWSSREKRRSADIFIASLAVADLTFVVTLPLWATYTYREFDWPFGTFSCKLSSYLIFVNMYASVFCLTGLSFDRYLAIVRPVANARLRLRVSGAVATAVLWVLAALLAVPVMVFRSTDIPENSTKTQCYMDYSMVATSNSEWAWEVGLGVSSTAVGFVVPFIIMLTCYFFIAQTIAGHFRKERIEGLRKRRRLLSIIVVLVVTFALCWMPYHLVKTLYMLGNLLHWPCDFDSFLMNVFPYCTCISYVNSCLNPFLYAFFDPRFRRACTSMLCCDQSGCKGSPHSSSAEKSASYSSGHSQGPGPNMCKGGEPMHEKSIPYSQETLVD
The experiment in a line: [35S] GTPγS assay, rat APJ receptor. It counts as biochemical. The settings on record: read-out: EC50 Rat APJ Receptor. The protocol:
The membranes were incubated with modified peptides in the assay buffer. […] Bound [^35S] GTPγS was separated from free radiolabel by filtration. The filter bound radioactivity was determined by liquid scintillation counting.
(In general: GTPγS is a poorly hydrolysed GTP analogue; its binding reports G protein activation.)

Data set [1] can be described thus: In vitro stability in rat liver homogenate. It counts as in vitro ADME. The settings on record: tissue homogenate. As for the experimental part:
(§1) Apelin peptides were spiked into rat plasma, liver homogenate, and kidney homogenate, which were obtained from commercial sources, to a final concentration of 5 μM. The samples were then incubated at 37° C. over a period of 4 hr. […] In a typical experiment, an aliquot of 100 μL of sample was taken from the incubation vial, followed by addition of 300 μL of MeOH containing internal standard. The quenched sample was centrifuged at 5500 g for 15 min after 15 min vortex in room temperature. The supernatant was then analyzed by high resolution LC-MS. […] In vitro plasma, […], and kidney stability results are shown below in Table 14.

A short description of data set [2]: In vitro stability in rat plasma. It counts as in vitro ADME. The protocol:
as §1

Where two headings read alike, the source gives them in different places. Starred links: 1 amine or outer side, 2 acyl side, 3 side chain; linkers in the order of their positions; H or OH if unused. Non-standard residues stand in square brackets, D forms with d. Residues, ends and D or L forms follow the SMILES beside them. ξ: configuration not given here. *: point of attachment. dBip = N[C@H](Cc1ccc(-c2ccccc2)cc1)C(=O)O; Oic = O=C(O)[C@@H]1C[C@@H]2CCCC[C@@H]2N1; Phe(4-Cl) = N[C@@H](Cc1ccc(Cl)cc1)C(=O)O; Phe(4-I) = N[C@@H](Cc1ccc(I)cc1)C(=O)O; γGlu = O=C(O)[C@H](CCC(=O)[*:2])N[*:1]; NMeR = CN[C@@H](CCCNC(=N)N)C(=O)O; Tridecanoyl = CCCCCCCCCCCCC(=O)*; hArg = N=C(N)NCCCC[C@H](N)C(=O)O; Cha = N[C@@H](CC1CCCCC1)C(=O)O; NMeL = CN[C@@H](CC(C)C)C(=O)O; Pip = O=C(O)[C@@H]1CCCCN1; Nle = CCCC[C@H](N)C(=O)O; Orn = NCCC[C@H](N)C(=O)O; ξαMeP = CC1(C(=O)O)CCCN1; ξβ3hV = CC(C)C(N)CC(=O)O; AEEA = NCCOCCOCC(=O)O; Aib = CC(C)(N)C(=O)O

The EC50 is the concentration that produces a half-maximal response. On to `CSCC[C@H](NC(=O)[C@@H]1CCCN1C(=O)CNC(=O)[C@H](CCCCN)NC(=O)[C@H](Cc1c[nH]cn1)NC(=O)[C@H](CO)NC(=O)[C@H](CC(C)C)NC(=O)[C@H](CCCNC(=N)N)NC(=O)[C@@H]1CCCN1C(=O)[C@H](CCCNC(=N)N)NC(=O)[C@H](CCC(N)=O)NC(=O)[C@H](CCCNC(=N)N)NC(=O)[C@H](CCCNC(=N)N)NC(=O)[C@H](Cc1ccccc1)NC(=O)[C@@H](N)CCCCN)C(=O)N1CCC[C@H]1C(=O)O` [compound 12], for which the 50% effective concentration (EC50) on rat APJ receptor (rat APJ receptor) amounted to 5.81 nM.
On to `CC(=O)N[C@@H](CCCCNC(=N)N)C(=O)N[C@@H](CCCCNC(=N)N)C(=O)N[C@@H](CCC(N)=O)C(=O)N[C@@H](CCCCNC(=N)N)C(=O)N1[C@H](C(=O)N[C@H](CCCNC(=N)N)C(=O)N(C)[C@@H](CC(C)C)C(=O)N[C@@H](CO)C(=O)N[C@@H](Cc2c[nH]cn2)C(=O)N[C@@H](CCCCN)C(=O)NCC(=O)N2[C@H](C(=O)N[C@@H](Cc3ccc(I)cc3)C(=O)N3CCC[C@H]3C(=O)N[C@H](Cc3ccc(-c4ccccc4)cc3)C(=O)O)C[C@@H]3CCCC[C@@H]32)C[C@@H]2CCCC[C@@H]21` [compound 21] (Ac-[hArg][hArg]Q[hArg][Oic][dR][NMeL]SHKG[Oic][Phe(4-I)]P[dBip]-OH), for which, on rat APJ receptor, the 50% effective concentration (EC50) was 1.8 nM.
Same read-out and setting: the figure for `CCCC[C@H](NC(=O)[C@@H]1CCCN1C(=O)CNC(=O)[C@H](CCCCN)NC(=O)[C@H](Cc1c[nH]cn1)NC(=O)[C@H](CO)NC(=O)[C@H](CC1CCCCC1)NC(=O)[C@H](CCCCNC(=N)N)NC(=O)[C@@H]1CCCN1C(=O)[C@H](CCCNC(=N)N)NC(=O)[C@H](CCC(N)=O)NC(=O)[C@H](CCCCNC(=N)N)NC(=O)[C@H](CCCCNC(=N)N)NC(=O)[C@H](Cc1ccccc1)NC(=O)[C@H](CCCN)NC(C)=O)C(=O)N[C@@H](Cc1ccc(Cl)cc1)C(=O)O` [compound 48] (Ac-[Orn]F[hArg][hArg]QRP[hArg][Cha]SHKGP[Nle][Phe(4-Cl)]-OH) is 0.486 nM.
Consider `CCCC[C@H](NC(=O)[C@@H]1CCCN1C(=O)CNC(=O)[C@H](CCCCN)NC(=O)[C@H](Cc1c[nH]cn1)NC(=O)[C@H](CO)NC(=O)[C@H](CC(C)C)N(C)C(=O)[C@H](CCCNC(=N)N)NC(=O)[C@@H]1CCCN1C(=O)[C@H](CCCNC(=N)N)NC(=O)[C@H](CCC(N)=O)NC(=O)[C@H](CCCNC(=N)N)NC(C)=O)C(=O)N1CCC[C@H]1C(=O)N[C@@H](Cc1ccc(Cl)cc1)C(=O)O` [compound 64] (Ac-RQRPR[NMeL]SHKGP[Nle]P[Phe(4-Cl)]-OH), for which, at rat APJ receptor (rat APJ receptor), the EC50 turned out to be 0.411 nM.
One may read the share remaining as the share of the starting amount still present when the sample was taken. Read a high share remaining as less turnover. With `CCCCCCCCCCCCC(=O)N[C@@H](CCC(=O)NCCOCCOCC(=O)NCCOCCOCC(=O)N[C@@H](CCC(N)=O)C(=O)N[C@@H](CCCNC(=N)N)C(=O)N[C@@H](CCC(=O)O)C(=O)N(C)[C@@H](CCCNC(=N)N)C(=O)N[C@@H](CC(C)C)C(=O)N[C@@H](CO)C(=O)N[C@@H](Cc1c[nH]cn1)C(=O)N[C@@H](CCCCN)C(=O)NCC(=O)N1CCC[C@H]1C(=O)N[C@@H](CCCC)C(=O)N1CCC[C@H]1C(=O)N[C@@H](Cc1ccc(Cl)cc1)C(=O)O)C(=O)O` [compound 476], the fraction remaining at 4 h, 5 μM in data set [1] was under 1%; in data set [2], 40%.
The corresponding values for `CCCCCCCCCCCCC(=O)N[C@@H](CCC(=O)NCCOCCOCC(=O)NCCOCCOCC(=O)N[C@@H](CCC(N)=O)C(=O)N[C@@H](CCCNC(=N)N)C(=O)N1CCC[C@@]1(C)C(=O)N[C@@H](CCCCNC(=N)N)C(=O)N[C@@](C)(CC(C)C)C(=O)N[C@@H](CO)C(=O)N[C@@H](Cc1c[nH]cn1)C(=O)N[C@@H](CCCCN)C(=O)NCC(=O)N1CCC[C@H]1C(=O)N[C@@H](CCCC)C(=O)N1CCC[C@H]1C(=O)N[C@@H](Cc1ccc(Cl)cc1)C(=O)O)C(=O)O` [compound 482] are under 1% and 62%.
Consider `CCCCCCCCCCCCC(=O)N[C@@H](CCC(=O)NCCOCCOCC(=O)NCCOCCOCC(=O)N[C@@H](CCC(N)=O)C(=O)N[C@@H](CCCCNC(=N)N)C(=O)N1CCC[C@H]1C(=O)N(C)[C@@H](CCCCNC(=N)N)C(=O)N[C@@H](CC(C)C)C(=O)N[C@@H](CO)C(=O)N[C@@H](Cc1c[nH]cn1)C(=O)N[C@@H](CCCCN)C(=O)NCC(=O)N1CCC[C@H]1C(=O)N[C@@H](CCCC)C(=O)N1CCC[C@H]1C(=O)N[C@@H](Cc1ccc(Cl)cc1)C(=O)O)C(=O)O` [compound 483], for which the share remaining at 4 h, 5 μM in data set [1] was under 1%; in data set [2], 37%.
The corresponding values for `CCCCCCCCCCCCC(=O)N[C@@H](CCC(=O)NCCOCCOCC(=O)NCCOCCOCC(=O)N[C@@H](CCC(N)=O)C(=O)N(C)[C@@H](CCCCNC(=N)N)C(=O)N1CCC[C@H]1C(=O)N(C)[C@@H](CCCNC(=N)N)C(=O)N[C@@](C)(CC(C)C)C(=O)N[C@@H](CO)C(=O)N[C@@H](Cc1c[nH]cn1)C(=O)N[C@@H](CCCCN)C(=O)NCC(=O)N1CCC[C@H]1C(=O)N[C@@H](CCCC)C(=O)N1CCC[C@H]1C(=O)N[C@@H](Cc1ccc(Cl)cc1)C(=O)O)C(=O)O` [compound 484] are under 1% and 79%.
The corresponding values for `CCCCCCCCCCCCC(=O)N[C@@H](CCC(=O)NCCOCCOCC(=O)NCCOCCOCC(=O)N[C@@H](CCC(N)=O)C(=O)N[C@H](CCCNC(=N)N)C(=O)N1CCC[C@H]1C(=O)N[C@@H](CCCCNC(=N)N)C(=O)N[C@@](C)(CC(C)C)C(=O)N[C@@H](CO)C(=O)N[C@@H](Cc1c[nH]cn1)C(=O)N[C@@H](CCCCN)C(=O)NCC(=O)N1CCC[C@H]1C(=O)N[C@@H](CCCC)C(=O)N1CCC[C@H]1C(=O)N[C@@H](Cc1ccc(Cl)cc1)C(=O)O)C(=O)O` [compound 485] are under 1% and 74%.
On the same counts, the results for `CCCCCCCCCCCCCCC(=O)N[C@@H](CCC(=O)NCCOCCOCC(=O)NCCOCCOCC(=O)N[C@@H](CCC(N)=O)C(=O)N[C@@H](CCCNC(=N)N)C(=O)N1CCC[C@H]1C(=O)N(C)[C@@H](CCCNC(=N)N)C(=O)N[C@@H](CC(C)C)C(=O)N[C@@H](CO)C(=O)N[C@@H](Cc1c[nH]cn1)C(=O)N[C@@H](CCCCN)C(=O)NCC(=O)N1CCC[C@H]1C(=O)N[C@@H](CCCC)C(=O)N1CCC[C@H]1C(=O)N[C@@H](Cc1ccc(Cl)cc1)C(=O)O)C(=O)O` [compound 495] are under 1% and 75%.
`CCCCCCCCCCCCC(=O)N[C@@H](CCC(=O)NCCOCCOCC(=O)NCCOCCOCC(=O)N[C@H](CCC(N)=O)C(=O)N[C@@H](CCCNC(=N)N)C(=O)N1CCC[C@H]1C(=O)N(C)[C@@H](CCCNC(=N)N)C(=O)N[C@@H](CC1CCCCC1)C(=O)N[C@@H](CO)C(=O)N[C@@H](Cc1c[nH]cn1)C(=O)N[C@@H](CCCCN)C(=O)NCC(=O)N1CCCC[C@H]1C(=O)N[C@@H](CCCC)C(=O)NC(C)(C)C(=O)N[C@@H](Cc1ccc(Cl)cc1)C(=O)O)C(=O)O` [compound 499] ({Tridecanoyl-γGlu-AEEA-AEEA}-[dQ]RP[NMeR][Cha]SHKG[Pip][Nle][Aib][Phe(4-Cl)]-OH): the share remaining at 4 h, 5 μM in data set [1] is under 1%; in data set [2] it was over 90%.
The corresponding values for `CCCCCCCCCCCCC(=O)N[C@@H](CCC(=O)NCCOCCOCC(=O)NCCOCCOCC(=O)N[C@H](CCC(N)=O)C(=O)N[C@@H](CCCNC(=N)N)C(=O)N1CCCC1(C)C(=O)N[C@@H](CCCCNC(=N)N)C(=O)NC(CC(=O)N[C@@H](CO)C(=O)N[C@@H](Cc1c[nH]cn1)C(=O)N[C@@H](CCCCN)C(=O)NCC(=O)N1CCCC[C@H]1C(=O)N[C@@H](CCCC)C(=O)N[C@@H](Cc1ccc(Cl)cc1)C(=O)O)C(C)C)C(=O)O` (stereo partly drawn) [compound 501] ({Tridecanoyl-γGlu-AEEA-AEEA}-[dQ]R[ξαMeP][hArg][ξβ3hV]SHKG[Pip][Nle][Phe(4-Cl)]-OH) are under 1% and over 90%.
The corresponding values for `CCCC[C@H](NC(=O)[C@@H]1CCCN1C(=O)CNC(=O)[C@H](CCCCN)NC(=O)[C@H](Cc1c[nH]cn1)NC(=O)[C@H](CO)NC(=O)[C@H](CC(C)C)NC(=O)[C@H](CCCNC(=N)N)N(C)C(=O)[C@@H]1CCCN1C(=O)[C@H](CCCNC(=N)N)NC(=O)[C@H](CCC(N)=O)NC(=O)COCCOCCNC(=O)COCCOCCNC(=O)CC[C@H](NC(=O)CCCCCCC(=O)O)C(=O)O)C(=O)N1CCC[C@H]1C(=O)N[C@@H](Cc1ccc(Cl)cc1)C(=O)O` [compound 508] are under 1% and under 1%.
On the same counts, the results for `CCCCCCCCCCCCC(=O)N[C@@H](CCC(=O)NCCOCCOCC(=O)NCCOCCOCC(=O)N[C@H](CCC(N)=O)C(=O)N[C@@H](CCCNC(=N)N)C(=O)N1CCC[C@H]1C(=O)N(C)[C@@H](CCCNC(=N)N)C(=O)N[C@@](C)(CC(C)C)C(=O)N[C@@H](CO)C(=O)N[C@@H](Cc1c[nH]cn1)C(=O)N[C@@H](CCCCN)C(=O)NCC(=O)N1CCCC[C@H]1C(=O)N[C@@H](CCCC)C(=O)N1CCC[C@@]1(C)C(=O)N[C@@H](Cc1ccc(Cl)cc1)C(=O)O)C(=O)O` [compound 555] are under 1% and over 90%.
